In patent US20050123553A1, “Amyloid beta-peptide and methods of use” (priority 2003, published 2005):

Columns and labels:
[1] = system: Aβ1-42-reactive T-cell lines; assay: Epitope mapping / proliferation of Aβ1-42-reactive T-cell lines; type: cell-based, human
Method: Epitope specificity of these 3 T-cell lines using 5 overlapping peptides within Aβ15-42 was further investigated.
(§1) T-cell lines were then supplemented with 10 μg/ml IL-2 after 48 hours and every 2 days thereafter until they were completely resting. T-cell proliferation was measured 72 hours after stimulation following a 12 hr incubation with [^3H]-thymidine. Supernatants were collected 48 hr after T-cell stimulation, and antigen-induced cytokine production was measured by sandwich ELISA. Recommended pairs of antibodies (coating and detecting) for IL-10 (R&D, Minneapolis, Minn.), INF-γ. Endogen, Woburn, Mass.), IL-13 (PharMingen, (San Diego, Calif.), and TGF-β (Promega, Madison, Wis.) were used according to the manufacturer's instructions. Surface and intracellular staining was performed on Aβ-reactive T-cells after stimulation. All antibodies were purchased from BD Biosciences (San Diego, Calif.) and staining was performed according to the manufacturer's instructions.

[2] = Fibril formation by quasielastic light-scattering spectroscopy (QLS); type: physicochemical; conditions: phosphate buffer pH 7.4, 3 samples of 10 μg/ml, 5 consecutive days
Method: Fibril formation was measured in 3 equivalent samples of 10 μg/ml Aβ for 5 consecutive days. […] Nested Aβ peptides (Aβ1-15, Aβ4-18, Aβ7-21, Aβ10-24, Aβ13-27, Aβ16-30, Aβ19-33, Aβ22-36, Aβ25-39, Aβ28-42) and alanine/glycine-substituted peptides were synthesized at Biosource International (Hopkinton, Mass.). Aβ peptides used for T-cell assays were dissolved in DMSO (2 mg/ml). Glatiramer acetate (GA) was obtained at the Brigham and Women's Hospital pharmacy.

Aβ-reactive T cells = assay: FACS of activation marker and cytokine expression in an Aβ-reactive T-cell line; type: cell-based, human; conditions: 30 hr after stimulation with irradiated autologous PBMCs
Method: To further determine the phenotype of Aβ-reactive T cells, a representative T-cell line also was tested by FACS for Th1 and Th2 cytokine expression. […] We further asked whether the cytokine profiles represented primarily Th2 lineages by testing for the expression of INF-γ and IL-13/IL-5 in the same cells.
as §1

Aβ-reactive T-cell lines = assay: Cytokine secretion of Aβ-reactive T-cell lines (sandwich ELISA); type: cell-based, human
Method: as §1

[3] = system: peripheral blood mononuclear cells; assay: Primary stimulation of PBMCs with αCD3/CD28 or glatiramer acetate ([3H]thymidine proliferation); type: cell-based, human
Method: In this study, αCD3/CD28 stimulation was measured as follows. PBMCs were cultured with 1 μg/ml soluble αCD3 plus αCD28 or cell culture medium alone, pulsed with [^3H] thymidine on day 2 after stimulation and incorporation measured 12 hr later. For glatiramer acetate stimulation, cells were cultured with 50 μg/ml GA or cell culture medium alone, and pulsed with [^3H] thymidine on day 6. Mean cpm=average cpm for each group. The average cpm for cells with culture medium alone was 825. […] Proliferative responses were calculated from these subjects. Two-tailed p values were calculated for the mean cpm using the alternate Welch test, assuming Gaussion populations with unequal SD's.
Primary stimulation with αCD3/CD28 or GA: For […] stimulation frozen PBMCs (2×10^5 cells/well) were cultured in 5 wells (U-bottom 96-well plate) in the presence of 1 μg/ml soluble αCD3 plus αCD28 and in additional 5 wells with cell culture medium alone, pulsed with […] thymidine on day 2 after stimulation and incorporation measured 12 hr later. For glatiramer acetate stimulation, fresh PBMCs were cultured in 5 wells with 50 μg/ml GA or cell culture medium alone, pulsed with [^3H] thymidine on day 6, and incorporation measured 12 hr later.

[4] = system: microglia and resting Aβ-reactive T cells; assay: Co-culture of microglia and resting Aβ-reactive T cells; type: cell-based, mouse
Method: Microglial cells were sorted and cultured for 12 hours in the presence and absence of IFN-γ. […] Representative areas were then extracted (shown in higher power) and analyzed for the pattern of T-cell migration. In the IFN-γ-treated culture, T cells were attracted to microglial cells, indicated by the sharp turns between the cells (FIG. 11B), and made a significant higher average number of contacts with the microglial cells, as compared with the untreated microglial culture (about 2.1 versus about 0.5, P<0.001) (FIG. 11B). […] These contacts are short time synapse formations characteristics of an early event during T-cell stimulation.
Preparation of cultures of mouse brain microglia: Glial cultures were prepared as described (JI). Briefly, cells were dissociated from the cerebral cortex of 1-day-old C57BL/6 mice after careful removal of meninges tissues, and were cultured in poly-D-lysine (PDL)-coated tissue culture flasks in medium supplemented with Dulbecco's modified Eagle's medium (DMEM), 4 mM L-glutamine, 50 U/ml penicillin, […] streptomycin, 10 mM HEPES, 1 mM sodium pyruvate, 10 mM nonessential amino acids, […] 2-mercaptoethanol (Sigma, St Louis, Mo.), and 10% fetal calf serum (FCS). On day 7, cultures were incubated with 100 pg/ml IFN-γ for 72 hours and on day 10, the entire glial culture was trypsinized and microglia were labeled with PE-conjugated anti-CD11b and sorted using FACS Vantage SE Cell Sorter.
Aβ uptake and T-cell stimulation by microglia: PE-labeled microglial cells were cultured in MatTek culture dishes (Ashland, Mass.) for 24 hours in the DMEM-FCS medium. […] Live images were then taken for 30 min with 20 sec intervals by a Zeiss Laser Scanning Confocal Microscope and analyzed by 3D analysis software (Zeiss, Thornwood, N.Y.). For the microglia-T-cell coculture experiments, Aβ-reactive T cells were generated as described and labeled with Alexa Flour 488-conjugated anti-mouse CD4. Resting cells were added to the microglia culture together with Aβ1-42.

[5] = system: Primary cultures of microglia; assay: Aβ uptake and motility of microglia treated with IFN-γ (live confocal imaging); type: cell-based, mouse
Method: The meningoencephailis we observed was completely dependent on expression of IFN-g in the CNS. […] We therefore established an in vitro system to examine early events associated with microglia activation by IFN-γ and their contribution to uptake of Aβ and specific T-cell activation. Primary cultures of microglia were prepared and live images were obtained by a confocal microscope, as described in Methods. FITC-labeled Aβ was added to the culture for 30 min, cultures were carefully washed, and live images were taken for 30 minutes. […] (FIG. 10B).
Preparation of cultures of mouse brain microglia: Glial cultures were prepared as described (JI). […]
Aβ uptake and T-cell stimulation by microglia: PE-labeled microglial cells were cultured in MatTek culture dishes (Ashland, Mass.) for 24 hours in the DMEM-FCS medium. […] Live images were then taken for 30 min with 20 sec intervals by a Zeiss Laser Scanning Confocal Microscope and analyzed by 3D analysis software (Zeiss, Thornwood, N.Y.). […]

[6] = lines from 24 subjects, fine mapping with 15 amino acid overlapping peptides
[7] = αCD3/CD28 1 μg/ml pulsed day 2, GA 50 μg/ml pulsed day 6

## Aβ1-40: Aβ1-40 synthetic peptide, one of the two major forms of Aβ protein [reference compound]
[1]
  reactivity of Aβ28-42-reactive T-cell lines: unreactive
[2]
  fibril formation / aggregation: Slight aggregation was detected in only one sample

## Aβ15-42: overlapping C-terminal fragment of Aβ1-42, residues 15-42 (QKLVFFAEDVGSNKGAIIGLMVGGVVIA; Amyloid-beta protein 42; UniProt P05067 686-713, looked up, fragment)
Aβ-reactive T cells
  expression of the CD69 activation marker on CD4+ cells: increased expression
[1]; [6]
  Distribution of Aβ T-cell epitopes: Number of T-cell lines: 22
  Distribution of Aβ T-cell epitopes: percent: 92%
Aβ-reactive T-cell lines
  Th2 response: elicit a Th2 response

## Glatiramer acetate
[3]; all groups tested, 50 μg/ml GA
  subjects that showed proliferation: 90%
[3]; [7]
  Proliferation, Mean cpm ± SEM, Adult: 35,342 ± 7,893 cpm
  Proliferation, Mean cpm ± SEM, Alzheimer's disease subjects: 19,403 ± 3,078 cpm
  Proliferation, Mean cpm ± SEM, Elderly: 27,311 ± 4,781 cpm

## IFN-γ: cytokine used to treat microglial cultures (100 pg/ml)
[4]; IFN-γ-treated culture
  average number of contacts of T cells with the microglial cells: about 2.1
[4]; IFN-γ-treated versus untreated culture
  motility of the T cells: significant increase
[4]; IFN-γ-treated versus untreated microglia, Aβ1-42 as antigen
  density of T cells on microglia: higher density
[5]; pretreated versus untreated cultures, FITC-labeled Aβ 30 min
  Aβ uptake by microglia: significantly enhanced
[5]; treated versus untreated cultures
  filipodia formation (microglia motility): longer and occurred with higher frequency
